Experimental data as given in US8026243B2, “[4,5′]Bipyrimidinyl-6,4′-diamine derivatives as protein kinase inhibitors” (Novartis AG, priority 2006, dated 2011).

Target: T1, Ba/F3-TEL-FGFR3 cells (Homo sapiens, UniProt P22607)
T1 construct: fused on or other part: The N-terminal oligomerising part of TEL (ETV6) is fused before the intracellular kinase part of FGFR3; P41212 (Transcription factor ETV6)
Assay: FGFR3 cellular assay: proliferation of transformed Ba/F3-TEL-FGFR3 cells (AlamarBlue)
Assay type: cell-based
Conditions: 48 hours incubation, class symbols
Procedure: Compounds of the invention are tested for their ability to inhibit transformed Ba/F3-TEL-FGFR3 cells proliferation, which is dependent on FGFR3 cellular kinase activity. Ba/F3-TEL-FGFR3 are cultured up to 800,000 cells/mL in suspension, with RPMI 1640 supplemented with 10% fetal bovine serum as the culture medium. Cells are dispensed into 384-well format plate at 5000 cell/well in […], culture medium. Compounds of the invention are dissolved and diluted in dimethylsulfoxide (DMSO). Twelve points 1:3 serial dilutions are made into DMSO to create concentrations gradient ranging typically from 10 mM to 0.05 μM. Cells are added with 50 nL of diluted compounds and incubated for 48 hours in cell culture incubator. AlamarBlue® (TREK Diagnostic Systems), which can be used to monitor the reducing environment created by proliferating cells, are added to cells at final concentration of 10%. After additional four hours of incubation in a 37° C. cell culture incubator, fluorescence signals from reduced AlamarBlue® (Excitation at 530 nm, Emission at 580 nm) are quantified on Analyst GT (Molecular Devices Corp.). IC50 values are calculated by linear regression analysis of the percentage inhibition of each compound at 12 concentrations.

T1 sequence (P22607 whole entry, change not shown, the tested form may be a part): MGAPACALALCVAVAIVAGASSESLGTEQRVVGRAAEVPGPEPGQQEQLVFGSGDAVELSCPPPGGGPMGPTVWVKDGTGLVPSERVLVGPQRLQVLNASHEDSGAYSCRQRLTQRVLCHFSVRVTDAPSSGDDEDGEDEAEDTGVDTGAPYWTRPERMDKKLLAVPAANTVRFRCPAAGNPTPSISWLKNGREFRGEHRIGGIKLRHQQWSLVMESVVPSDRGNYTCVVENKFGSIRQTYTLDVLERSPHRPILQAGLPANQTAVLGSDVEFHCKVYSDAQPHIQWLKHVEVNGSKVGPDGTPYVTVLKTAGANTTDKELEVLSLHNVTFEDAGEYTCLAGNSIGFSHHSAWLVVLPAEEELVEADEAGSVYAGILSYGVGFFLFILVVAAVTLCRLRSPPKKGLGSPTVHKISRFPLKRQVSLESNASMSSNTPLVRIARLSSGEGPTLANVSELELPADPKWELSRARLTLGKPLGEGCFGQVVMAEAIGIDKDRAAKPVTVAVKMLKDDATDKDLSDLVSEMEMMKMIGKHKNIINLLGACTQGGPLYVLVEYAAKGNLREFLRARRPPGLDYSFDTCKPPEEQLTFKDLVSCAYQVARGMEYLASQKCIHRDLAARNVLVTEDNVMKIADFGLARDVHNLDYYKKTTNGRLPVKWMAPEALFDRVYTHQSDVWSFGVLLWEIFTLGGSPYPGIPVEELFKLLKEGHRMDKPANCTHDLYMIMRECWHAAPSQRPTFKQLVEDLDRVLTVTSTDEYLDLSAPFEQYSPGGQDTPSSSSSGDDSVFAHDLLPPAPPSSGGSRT

Q: With CCNC(=O)c1cc(OC)c(Cl)c(Nc2ncncc2-c2cc(Nc3ccc(N4CCN(CC)CC4)cn3)ncn2)c1Cl [Compound 42, 2,4-Dichloro-N-ethyl-3-{6-[5-(4-ethyl-piperazin-1-yl)-pyridin-2-ylamino]-[4,5′]bipyrimidinyl-4′-ylamino}-5-methoxy-benzamide] as the molecule, how does the GI50 read?
A: < 100 nM

Q: Which GI50 does the source give for COc1cc(Nc2ncncc2-c2cc(Nc3ccc(CN4CCOCC4)cn3)ncn2)c(F)c(OC)c1 [Compound 68, N4′-(2-Fluoro-3,5-dimethoxy-phenyl)-N6-(5-morpholin-4-ylmethyl-pyridin-2-yl)-[4,5′]bipyrimidinyl-6,4′-diamine] here?
A: < 100 nM

Q: COc1cc(OC)c(Cl)c(Nc2ncncc2-c2cc(N)ncn2)c1Cl [Compound 1, N4′-(2,6-Dichloro-3,5-dimethoxy-phenyl)-[4,5′]bipyrimidinyl-6,4′-diamine] was tested. Which GI50 did it give?
A: 100 to 250 nM

Q: CCN1CCN(c2ccc(Nc3cc(-c4cncnc4Nc4c(Cl)c(OC)cc(OC)c4Br)ncn3)nc2)CC1 [Compound 47, N4′-(2-Bromo-6-chloro-3,5-dimethoxy-phenyl)-N6-[5-(4-ethyl-piperazin-1-yl)-pyridin-2-yl]-[4,5′]bipyrimidinyl-6,4′-diamine] was tested. Which GI50 did it give?
A: < 100 nM

Q: With CCN1CCN(c2ccc(Nc3cc(-c4cncnc4Nc4c(Cl)c(OC)cc(C(=O)OC)c4Cl)ncn3)nc2)CC1 [Compound 41, 2,4-Dichloro-3-{6-[5-(4-ethyl-piperazin-1-yl)-pyridin-2-ylamino]-[4,5′]bipyrimidinyl-4′-ylamino}-5-methoxy-benzoic acid methyl ester] as the molecule, how does the GI50 read?
A: < 100 nM

Q: For CCNC(=O)c1cc(OC)c(Cl)c(Nc2ncncc2-c2cc(Nc3ccc(CN(C)C)cn3)ncn2)c1Cl [Compound 31, 2,4-Dichloro-3-[6-(5-dimethylaminomethyl-pyridin-2-ylamino)-[4,5′]bipyrimidinyl-4′-ylamino]-N-ethyl-5-methoxy-benzamide], which GI50 is on record?
A: < 100 nM

Q: How did the GI50 turn out when CCNC(=O)c1cc(OC)c(Cl)c(Nc2ncncc2-c2cc(Nc3cc(CN4CCOCC4)ccn3)ncn2)c1Cl [Compound 33, 2,4-Dichloro-N-ethyl-5-methoxy-3-[6-(4-morpholin-4-ylmethyl-pyridin-2-ylamino)-[4,5′]bipyrimidinyl-4′-ylamino]-benzamide] was run?
A: < 100 nM

Q: Which GI50 does the source give for COc1cc(OC)c(Cl)c(Nc2nc(C)ncc2-c2cc(Nc3ccc(CN4CCOCC4)cn3)ncn2)c1F [Compound 91, N4′-(2-Chloro-6-fluoro-3,5-dimethoxy-phenyl)-2′-methyl-N6-(5-morpholin-4-ylmethyl-pyridin-2-yl)-[4,5′]bipyrimidinyl-6,4′-diamine] here?
A: < 100 nM

Q: For COc1cc(OC)c(Cl)c(Nc2ncncc2-c2cc(Nc3cc(CN4CCOCC4)ccn3)ncn2)c1Cl [Compound 5, N4′-(2,6-Dichloro-3,5-dimethoxy-phenyl)-N6-(4-morpholin-4-ylmethyl-pyridin-2-yl)-[4,5′]bipyrimidinyl-6,4′-diamine], which GI50 is on record?
A: < 100 nM

Q: Which GI50 does the source give for COc1cc(OC)c(Cl)c(Nc2ncncc2-c2cc(Nc3ccc(CN4CCN(C(=O)CO)CC4)cn3)ncn2)c1Cl [Compound 87, 1-(4-{6-[4′-(2,6-Dichloro-3,5-dimethoxy-phenylamino)-[4,5′]bipyrimidinyl-6-ylamino]-pyridin-3-ylmethyl}-piperazin-1-yl)-2-hydroxy-ethanone] here?
A: < 100 nM

Q: For CCN1CCN(Cc2ccc(NC(=O)c3cc(OC)c(Cl)c(Nc4ncncc4-c4cc(Nc5ccc(CN6CCOCC6)cn5)ncn4)c3Cl)cc2C(F)(F)F)CC1 [Compound 93, 2,4-dichloro-N-(4-((4-ethylpiperazin-1-yl)methyl)-3-(trifluoromethyl)phenyl)-5-methoxy-3-(6-(5-(morpholinomethyl)pyridin-2-ylamino)-4,5′-bipyrimidin-4′-ylamino)benzamide], which GI50 is on record?
A: < 100 nM

Q: How did the GI50 turn out when CCN1CCN(c2ccc(Nc3cc(-c4cncnc4Nc4c(F)c(OC)cc(OC)c4Cl)ncn3)nc2)CC1 [Compound 43, N4′-(2-Chloro-6-fluoro-3,5-dimethoxy-phenyl)-N6-[5-(4-ethyl-piperazin-1-yl)-pyridin-2-yl]-[4,5′]bipyrimidinyl-6,4′-diamine] was run?
A: < 100 nM

Q: With COc1cc(C(=O)NC2CC2)c(Cl)c(Nc2ncncc2-c2cc(Nc3ccc(CN4CCOCC4)cn3)ncn2)c1Cl [Compound 57, 2,4-Dichloro-N-cyclopropyl-5-methoxy-3-[6-(5-morpholin-4-ylmethyl-pyridin-2-ylamino)-[4,5′]bipyrimidinyl-4′-ylamino]-benzamide] as the molecule, how does the GI50 read?
A: < 100 nM

Q: With CCNC(=O)c1cc(OC)c(Cl)c(Nc2ncncc2-c2cc(Nc3ccc(CN4CCOCC4)cn3)ncn2)c1Cl [Compound 24, 2,4-Dichloro-N-ethyl-5-methoxy-3-[6-(5-morpholin-4-ylmethyl-pyridin-2-ylamino)-[4,5′]bipyrimidinyl-4′-ylamino]-benzamide] as the molecule, how does the GI50 read?
A: < 100 nM

Q: COc1cc(C(=O)Nc2cccc(C(F)(F)F)c2)c(Cl)c(Nc2ncncc2-c2cc(Nc3ccc(CN4CCOCC4)cn3)ncn2)c1Cl [Compound 92, 2,4-dichloro-5-methoxy-3-(6-(5-(morpholinomethyl)pyridin-2-ylamino)-4,5′-bipyrimidin-4′-ylamino)-N-(3-(trifluoromethyl)phenyl)benzamide] was tested. Which GI50 did it give?
A: < 100 nM

Q: How did the GI50 turn out when CCONC(=O)c1cc(OC)c(Cl)c(Nc2ncncc2-c2cc(Nc3ccc(CN4CCOCC4)cn3)ncn2)c1Cl [Compound 25, 2,4-Dichloro-N-ethoxy-5-methoxy-3-[6-(5-morpholin-4-ylmethyl-pyridin-2-ylamino)-[4,5′]bipyrimidinyl-4′-ylamino]-benzamide] was run?
A: < 100 nM

Q: For COc1cc(Nc2ncncc2-c2cc(Nc3ccc(CN4CCN(CCO)CC4)cn3)ncn2)c(F)c(OC)c1 [Compound 70, 2-(4-{6-[4′-(2-Fluoro-3,5-dimethoxy-phenylamino)-[4,5′]bipyrimidinyl-6-ylamino]-pyridin-3-ylmethyl}-piperazin-1-yl)-ethanol], which GI50 is on record?
A: < 100 nM

Q: For COc1cc(OC)c(Cl)c(Nc2ncncc2-c2cc(Nc3ccc(CN4CCN(C(C)=O)CC4)cn3)ncn2)c1Cl [Compound 16, 1-(4-{6-[4′-(2,6-Dichloro-3,5-dimethoxy-phenylamino)-[4,5′]bipyrimidinyl-6-ylamino]-pyridin-3-ylmethyl}-piperazin-1-yl)-ethanone], which GI50 is on record?
A: < 100 nM

Q: Which GI50 does the source give for CCN1CCN(Cc2ccc(Nc3cc(-c4cncnc4Nc4cc(OC)cc(OC)c4F)ncn3)nc2)CC1 [Compound 69, N6-[5-(4-Ethyl-piperazin-1-ylmethyl)-pyridin-2-yl]-N4′-(2-fluoro-3,5-dimethoxy-phenyl)-[4,5′]bipyrimidinyl-6,4′-diamine] here?
A: < 100 nM

Q: How did the GI50 turn out when CCN1CCN(Cc2ccc(Nc3cc(-c4cncnc4Nc4c(C)c(OC)cc(OC)c4Cl)ncn3)nc2)CC1 [Compound 53, N4′-(2-Chloro-3,5-dimethoxy-6-methyl-phenyl)-N6-[5-(4-ethyl-piperazin-1-ylmethyl)-pyridin-2-yl]-[4,5′]bipyrimidinyl-6,4′-diamine] was run?
A: < 100 nM

Q: COc1cc(OC)c(Cl)c(Nc2nccnc2-c2cc(Nc3cc(CN4CCOCC4)ccn3)ncn2)c1Cl [Compound 96, {6-[3-(2,6-Dichloro-3,5-dimethoxy-phenylamino)-pyrazin-2-yl]-pyrimidin-4-yl}-(4-morpholin-4-ylmethyl-pyridin-2-yl)-amine] was tested. Which GI50 did it give?
A: < 100 nM

Q: For COc1cc(OC)c(Cl)c(Nc2ncncc2-c2cc(NCCCCN(C)C)ncn2)c1Cl [Compound 13, N4′-(2,6-Dichloro-3,5-dimethoxy-phenyl)-N6-(4-dimethylamino-butyl)-[4,5′]bipyrimidinyl-6,4′-diamine], which GI50 is on record?
A: 250 to 500 nM

Q: How did the GI50 turn out when COc1cc(Nc2ncncc2-c2cc(Nc3ccc(CCN4CCOCC4)cn3)ncn2)c(F)c(OC)c1 [Compound 84, N4′-(2-Fluoro-3,5-dimethoxy-phenyl)-N6-[5-(2-morpholin-4-yl-ethyl)-pyridin-2-yl]-[4,5′]bipyrimidinyl-6,4′-diamine] was run?
A: < 100 nM

Q: Which GI50 does the source give for COc1ccc(F)c(Nc2nccnc2-c2cc(Nc3cc(CN4CCOCC4)ccn3)ncn2)c1F [Compound 105, {6-[3-(2,6-Difluoro-3-methoxy-phenylamino)-pyrazin-2-yl]-pyrimidin-4-yl}-(4-(morpholin-4-ylmethyl)-pyridin-2-yl)-amine] here?
A: < 100 nM

Q: COc1cc(Nc2ncncc2-c2cc(Nc3cc(CN4CCN(C)CC4)ccn3)ncn2)c(Cl)c(OC)c1 [Compound 39, N4′-(2-Chloro-3,5-dimethoxy-phenyl)-N6-[4-(4-methyl-piperazin-1-ylmethyl)-pyridin-2-yl]-[4,5′]bipyrimidinyl-6,4′-diamine] was tested. Which GI50 did it give?
A: 100 to 250 nM

Q: How did the GI50 turn out when COC(=O)c1cc(OC)c(Cl)c(Nc2ncncc2-c2cc(N)ncn2)c1Cl [Compound 23, 3-(6-Amino-[4,5′]bipyrimidinyl-4′-ylamino)-2,4-dichloro-5-methoxy-benzoic acid methyl ester] was run?
A: 250 to 500 nM

Q: CCN1CCN(c2ccc(Nc3cc(-c4cncnc4Nc4c(F)c(OC)cc(OC)c4Cl)ncn3)cc2)CC1 [Compound 59, N4′-(2-Chloro-6-fluoro-3,5-di-methoxy-phenyl)-N6-[4-(4-ethyl-piperazin-1-yl)-phenyl]-[4,5′]bipyrimidinyl-6,4′-diamine] was tested. Which GI50 did it give?
A: < 100 nM

Same assay, conditions: 48 hours incubation, given as bound

Q: COc1ccc(F)c(Nc2nccnc2-c2cc(N)ncn2)c1F [Compound 103, {6-[3-(2,6-Difluoro-3-methoxy-phenylamino)-pyrazin-2-yl]-pyrimidin-4-yl}-amine] was tested. Which GI50 did it give?
A: > 500 nM

Q: With Clc1cccc(Cl)c1Nc1nccnc1-c1cc(Nc2ccc(CN3CCOCC3)cn2)ncn1 [Compound 107, 6-(3-(2,6-dichlorophenylamino)pyrazin-2-yl)-N-(5-(morpholinomethyl)pyridin-2-yl)pyrimidin-4-amine] as the molecule, how does the GI50 read?
A: > 500 nM
